Consider one molecule from patent US20040259818A1, “Glucoronide adduct as gaba ligand” (priority 2001, published 2004).

The target in series [1] is α2 and/or α3 subunit of the human GABAA receptor. Description: [3H]-flumazenil displacement binding assay, α2 and/or α3 subunit. The settings on record: displacement of [3H]-flumazenil; human GABAA receptors stably expressed in Ltk- cells; read-out: binding affinity (Ki) for the α2 and/or α3 subunit.
Protocol: Assay buffer: 10 mM KH2PO4, 100 mM KCl, pH 7.4 at room temperature.
Flunitrazepam 100 μM in assay buffer.
Cells resuspended in assay buffer (1 tray to 10 ml).
Supernatant is removed from cells. PBS (approximately 20 ml) is added. The cells are scraped and placed in a 50 ml centrifuge tube. The procedure is repeated with a further 10 ml of PBS to ensure that most of the cells are removed. The cells are pelleted by centrifuging for 20 min at 3000 rpm in a benchtop centrifuge, and then frozen if desired. The pellets are resuspended in 10 ml of buffer per tray (25 cm×25 cm) of cells.
Can be carried out in deep 96-well plates or in tubes. Each tube contains:
50 μl of buffer or solvent carrier (e.g. 10% DMSO) if compounds are dissolved in 10% DMSO (total); test compound or flunitrazepam (to determine non-specific binding), 10 μM final concentration.
Assays are incubated for 1 hour at 40° C., then filtered using either a Tomtec or Brandel cell harvester onto GF/B filters followed by 3×3 ml washes with ice cold assay buffer. Filters are dried and counted by liquid scintillation counting. […] Binding parameters are determined by non-linear least squares regression analysis, from which the inhibition constant Ki can be calculated for each test compound.
Series [2] addresses T1, α3 subunit of the human GABAA receptor relative to α1 subunit (Homo sapiens, UniProt P18507+P34903).
T1 construct: expressed in transfected cells; host or cells: stably transfected eukaryotic cells, typically mouse Ltk- fibroblasts
T1 sequence (P34903 29-492): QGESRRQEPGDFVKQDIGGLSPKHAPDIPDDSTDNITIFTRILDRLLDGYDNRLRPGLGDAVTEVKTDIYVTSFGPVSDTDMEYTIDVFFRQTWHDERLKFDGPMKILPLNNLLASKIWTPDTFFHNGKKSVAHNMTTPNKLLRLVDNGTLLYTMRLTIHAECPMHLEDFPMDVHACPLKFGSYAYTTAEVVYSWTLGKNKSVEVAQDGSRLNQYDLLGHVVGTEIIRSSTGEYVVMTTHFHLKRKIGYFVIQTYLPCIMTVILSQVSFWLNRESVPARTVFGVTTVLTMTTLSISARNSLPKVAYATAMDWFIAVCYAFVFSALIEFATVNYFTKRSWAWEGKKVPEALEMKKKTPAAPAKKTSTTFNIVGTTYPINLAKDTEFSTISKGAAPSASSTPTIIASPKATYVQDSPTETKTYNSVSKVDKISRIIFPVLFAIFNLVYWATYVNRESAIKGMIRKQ
T1 sequence (P28472 26-473 partner): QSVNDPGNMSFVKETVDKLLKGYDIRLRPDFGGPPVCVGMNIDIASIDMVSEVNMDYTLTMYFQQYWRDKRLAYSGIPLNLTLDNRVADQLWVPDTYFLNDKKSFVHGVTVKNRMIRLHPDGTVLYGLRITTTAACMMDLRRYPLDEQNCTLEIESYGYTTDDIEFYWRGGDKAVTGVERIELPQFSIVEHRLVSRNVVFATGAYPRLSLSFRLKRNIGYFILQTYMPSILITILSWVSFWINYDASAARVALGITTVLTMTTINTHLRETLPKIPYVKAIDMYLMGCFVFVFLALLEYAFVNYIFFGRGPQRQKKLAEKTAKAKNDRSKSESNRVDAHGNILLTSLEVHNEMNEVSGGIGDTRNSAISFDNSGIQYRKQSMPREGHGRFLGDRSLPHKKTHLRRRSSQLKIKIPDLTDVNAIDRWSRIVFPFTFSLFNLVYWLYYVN
T1 sequence (P18507 40-467 limits assumed): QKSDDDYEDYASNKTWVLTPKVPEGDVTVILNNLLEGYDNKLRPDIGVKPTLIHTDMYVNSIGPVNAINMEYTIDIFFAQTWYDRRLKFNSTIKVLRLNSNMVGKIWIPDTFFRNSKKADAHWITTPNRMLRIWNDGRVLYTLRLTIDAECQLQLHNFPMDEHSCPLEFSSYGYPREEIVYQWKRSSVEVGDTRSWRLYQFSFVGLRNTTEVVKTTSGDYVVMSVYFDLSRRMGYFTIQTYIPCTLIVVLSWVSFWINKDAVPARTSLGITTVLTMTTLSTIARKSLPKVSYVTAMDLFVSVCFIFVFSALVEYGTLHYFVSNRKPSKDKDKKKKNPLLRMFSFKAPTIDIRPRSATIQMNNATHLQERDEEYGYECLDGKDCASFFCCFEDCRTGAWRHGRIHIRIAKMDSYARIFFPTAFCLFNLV
The series can be described thus: potentiation of the GABA EC20 response in stably transfected recombinant cell lines. The format is cell-based. The settings on record: stably transfected recombinant cell lines expressing α3 vs α1 subunit of the human GABAA receptor. The source says:
The potentiation of the GABA EC20 response in stably transfected cell lines expressing the α3 and α1 subunits of the human GABAA receptor can conveniently be measured by procedures analogous to the protocol described in Wafford et al., Mol. Pharmacol., 1996, 50, 670-678. The procedure will suitably be carried out utilising cultures of stably transfected eukaryotic cells, typically of stably transfected mouse Ltk^− fibroblast cells.

Another series in a line: elevated plus maze test. To be noted: in vivo.
Series [3] is described as follows: conditioned suppression of drinking test. The settings on record: in vivo.
Series [4] can be described thus: response sensitivity (chain-pulling) test. To be noted: in vivo.
The nature of series [5]: brain penetration inferred from behavioural effects. The format is in vivo. The settings on record: inferred because it elicits behavioural effects. The source says: Since it elicits behavioural effects, the triazolo-pyridazine derivative of the invention plainly is brain-penetrant; in other words, it is capable of crossing the so-called “blood-brain barrier”. Advantageously, the triazolo-pyridazine derivative of the invention is capable of exerting its beneficial therapeutic action following administration by the oral route.

The next series has as its target α3β3γ2 GABAA/BzR (Homo sapiens, UniProt P18507+P34903). The series can be described thus: biochemical.

α3β3γ2 GABAA/BzR, sequence (P18507 whole entry, looked up): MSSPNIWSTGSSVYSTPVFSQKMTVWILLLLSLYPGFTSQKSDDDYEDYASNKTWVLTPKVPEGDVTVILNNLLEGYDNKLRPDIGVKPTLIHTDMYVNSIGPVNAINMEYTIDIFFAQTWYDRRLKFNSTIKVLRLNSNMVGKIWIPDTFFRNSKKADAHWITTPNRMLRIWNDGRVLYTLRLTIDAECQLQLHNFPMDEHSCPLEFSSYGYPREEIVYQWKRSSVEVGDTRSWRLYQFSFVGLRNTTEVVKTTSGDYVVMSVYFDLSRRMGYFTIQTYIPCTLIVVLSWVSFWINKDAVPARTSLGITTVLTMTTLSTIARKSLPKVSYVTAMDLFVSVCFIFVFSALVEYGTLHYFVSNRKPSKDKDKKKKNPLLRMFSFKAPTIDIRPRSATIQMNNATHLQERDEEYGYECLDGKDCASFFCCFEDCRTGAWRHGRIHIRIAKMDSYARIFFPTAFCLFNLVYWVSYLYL
α3β3γ2 GABAA/BzR, sequence (P34903 whole entry, looked up): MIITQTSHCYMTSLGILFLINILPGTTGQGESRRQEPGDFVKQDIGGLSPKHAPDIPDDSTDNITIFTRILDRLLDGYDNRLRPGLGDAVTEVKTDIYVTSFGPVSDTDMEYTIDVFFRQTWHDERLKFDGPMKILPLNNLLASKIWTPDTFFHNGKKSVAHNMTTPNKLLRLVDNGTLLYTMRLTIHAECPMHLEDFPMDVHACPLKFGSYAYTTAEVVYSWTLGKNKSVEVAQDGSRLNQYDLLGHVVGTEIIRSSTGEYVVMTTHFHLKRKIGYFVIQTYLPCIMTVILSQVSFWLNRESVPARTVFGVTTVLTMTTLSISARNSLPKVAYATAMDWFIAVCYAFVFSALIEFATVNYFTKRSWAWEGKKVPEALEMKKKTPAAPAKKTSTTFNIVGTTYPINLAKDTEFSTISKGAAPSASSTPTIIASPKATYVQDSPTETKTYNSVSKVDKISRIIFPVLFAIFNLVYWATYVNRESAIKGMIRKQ

With `CCn1ncnc1COc1nn2c(-c3ccccc3F)nnc2cc1C(C)(C)C` [triazolo-pyridazine derivative, 7-(1,1-dimethylethyl)-6-(2-ethyl-2H-1,2,4-triazol-3-ylmethoxy)-3-(2-fluorophenyl)-1,2,4-triazolo[4,3-b]pyridazine], the Ki (in series [1]; at α3β3γ2 GABAA/BzR) was under 1 nM each time. Further, the “potentiation of the GABA EC20 response, α3 relative to α1” value in series [2] is listed as “selective potentiation”. In “elevated plus maze test”, the “anxiolytic activity, elevated plus maze” value is on record as “positive response”. Moreover, in series [3], the “anxiolytic activity, conditioned suppression of drinking” value is “positive response”. The “sedation, response sensitivity (chain-pulling) test” value in series [4] is listed as “substantially non-sedating”. Moreover, in series [5], the “brain penetration (crossing the blood-brain barrier)” value is listed as “brain-penetrant”.
